The test system of series [1] is S. aureus ATCC 29213. In words: Time-kill kinetic assay. The format is cell-based, Staphylococcus aureus. As to conditions: 10× MIC, 24 hours. As to the method: The bacterial cultures were standardized to obtain an initial density that ranged from 10^5 to 10^6 cells/ml. The cultures were incubated in a shaking bath at 37°C. Viable counts were determined at 0-, 0.5-, 1.0-, 2.0-, 4.0-, 8.0-, and 24-hour intervals by spotting 10-μl aliquots of serially 10-fold diluted cultures onto Mueller-Hinton agar (MHA) plates. […] All measurements were repeated three times with duplicates each time.

Series [2] concerns rabbit erythrocytes. The experiment in a line: Hemolysis assay. The format is cell-based. As to conditions: concentration causing 50% hemolysis of red blood cells; 1 hour, 37°C. Here is the method:
The hemolytic activity of antimicrobial agents was investigated as previously described ([70]). Briefly, the rabbit erythrocytes were centrifuged at 2500 rpm for 3 min before being washed twice with sterile phosphate-buffered saline (PBS) (pH 7.4). Subsequently, the erythrocytes were diluted with PBS to a final concentration of 8% (v/v). The DMSO-dissolved compounds were twofold serially diluted in PBS to achieve a final concentration with DMSO less than 0.5%. […] Sterile PBS and 0.2% Triton X-100 were used as negative and positive controls, respectively. After 1 hour of incubation at 37°C, the tested samples were centrifuged at 2500 rpm for 5 min, and aliquots of the supernatant were added to 96-well microplates. The hemoglobin release was determined by measuring the absorbance at 576 nm using a BioTek multimode reader. The percentage of hemolytic activity was calculated using the following formula: Hemolysis rate (%) = [OD576 (compound) − OD576 (PBS)]/[OD576 (Triton X-100) − OD576 (PBS)] × 100. All measurements were repeated three times with duplicates each time.

Series [3] has as its system S. aureus ATCC 29213. In words: Murine corneal infection model. It is filed as in vivo, mice. The settings on record: topical, four times daily for 3 days; XT17 5 mg/ml, vancomycin 50 mg/ml; vs 5% glucose control. From the text: (§1) Female C57BL/6 mice (average weight, 20 g) were used for the in vivo efficacy experiments. Mice were housed in a specific pathogen–free facility on a 12-hour light-dark cycle, under the condition with ad libitum access to irradiation sterilized rodent diet and aseptic water. […]. These in vivo experiments were approved by the Experimental Animal Center of South China Agricultural University and conducted in accordance with the policies of the Ministry of Health of China.
(§2) The in vivo efficacy of compound XT17 was investigated in a murine corneal infection model. Before infection, the mice were immunosuppressed with three intraperitoneal injections of cyclophosphamide (100 mg/kg) over 5 days. After anesthesia with 2.5% avertin (500 mg/kg, ip), the left corneas of mice were scratched with 15 μl of S. aureus ATCC 29213 or P. aeruginosa ATCC 9027 (approximately 5 × 10^7 CFU/ml). Following 1 day of infection, the infected mice were randomly assigned into […] (n = 5) and subsequently administered with 0.5% compound XT17, 5% glucose solution, 5% vancomycin, or 0.3% gatifloxacin topically. S. aureus–caused murine corneal infections were treated four times a day for three consecutive days. Only 2 days of treatment were given for P. aeruginosa–caused murine corneal infections. On the first day, the drug was administered every 20 min for 1 hour and then three times at 2-hour intervals on the second day. The mice were given a 5% glucose solution as a negative control in the absence of any antimicrobial agent treatment. The infected corneas were collected after the mice were euthanized, and the number of viable bacteria was counted using MHA plates.

Series [4] deals with E. coli ATCC 25922. In words: MIC, broth microdilution. It is filed as cell-based, Escherichia coli. The settings on record: Escherichia coli, ATCC25922, 24 h, read-out: MIC90 E. coli ATCC 25922. Here is the method: (§3) MIC was determined using the broth microdilution method in accordance with Clinical and Laboratory Standards Institute guidelines. All compounds were dissolved in dimethyl sulfoxide (DMSO; final DMSO concentration of less than 0.5%) and sterile double-distilled water and then diluted with Mueller-Hinton broth (MHB). Each compound’s stock solution was serially twofold diluted, resulting in concentrations ranging from 0.39 to 100 μg/ml, and thereafter added to sterile 96-well plates. All bacterial cell suspensions were adjusted in MHB to attain a starting inoculum of 1 × 10^6 cells/ml. A total of 100 μl volume of the bacterial suspension was then added to each well. Following a 24-hour incubation at 37°C, the optical density at 600 nm (OD600) was confirmed by measuring absorbance at 600 nm with a BioTek microplate reader. […] All measurements were repeated three times with duplicates each time.
For orientation: Dilution methods test growth across graded concentrations, often in twofold steps.

Series [5] deals with MRSA NCTC 10442. In words: MIC, broth microdilution. The settings on record: Staphylococcus aureus, 24 h, read-out: MIC90 MRSA NCTC 10442. The format is cell-based. As to the method:
as §3

Series [6] concerns MRSA N315. The experiment in a line: MIC, broth microdilution. The format is cell-based. The settings on record: Staphylococcus aureus, 24 h, read-out: MIC90 MRSA N315. Here is the method:
as §3

The test system of series [7] is S. aureus ATCC 29213. In words: MIC, broth microdilution. The settings on record: Staphylococcus aureus, ATCC29213, 24 h, read-out: MIC90 S. aureus ATCC 29213. The format is cell-based. As to the method: as §3
Series [8] has as its system P. aeruginosa ATCC 9027. In words: Murine corneal infection model. The settings on record: topical, 2 days; XT17 5 mg/ml, gatifloxacin 3 mg/ml; vs 5% glucose control. The format is in vivo, mice.
Source text: as §1, §2

Each structure is given as a SMILES string. Values after ≈ are worked out from the molar mass of the structure shown.

What is called HC50 is the concentration giving 50% haemolysis. Read a low HC50 as stronger haemolysis. By MIC90 is commonly meant the lowest concentration that inhibits either 90% of growth or 90% of the strains tested, depending on the study.

Consider `CN[C@H](CC(C)C)C(=O)N[C@H]1C(=O)N[C@@H](CC(N)=O)C(=O)N[C@H]2C(=O)N[C@H]3C(=O)N[C@H](C(=O)N[C@H](C(=O)O)c4cc(O)cc(O)c4-c4cc3ccc4O)[C@H](O)c3ccc(c(Cl)c3)Oc3cc2cc(c3O[C@@H]2O[C@H](CO)[C@@H](O)[C@H](O)[C@H]2O[C@H]2C[C@](C)(N)[C@H](O)[C@H](C)O2)Oc2ccc(cc2Cl)[C@H]1O` [VAN, vancomycin, reference compound], for which the “log decrease in bacterial load” value in series [1] is reported as 4.56 log. In series [2], this compound had an HC50 of more than 200 µg/mL. In addition, in series [3], the “log reduction in viable bacterial colonies in the infected corneas” value came out at 5.57 log. Besides, the MIC90 in series [4] was more than 50 µg/mL; in series [5], 1.56 µg/mL (≈ 1.08 µM); in series [6], 1.56 µg/mL (≈ 1.08 µM); in series [7], 0.78 µg/mL (≈ 0.538 µM).
Turning to `COc1c(N2CCNC(C)C2)c(F)cc2c(=O)c(C(=O)O)cn(C3CC3)c12` (centres unmarked) [gatifloxacin, reference compound], the “log reduction in viable bacterial colonies in the infected corneas” value in series [8] is reported as 3.08 log.
